Results taken from article PMC12198292, “Advancing in vitro assessment of iodide uptake inhibition: integrating a novel biotransformation pretreatment step” (Archives of Toxicology, 2025).
Converted amounts (≈) assume the structure as drawn. Like-named read-outs stand apart in the source and are kept apart here.

Assays:
NIS = biological target: T1, NIS (Rattus norvegicus, UniProt Q63008); test: NIS-inhibition assay (iodide uptake, Sandell–Kolthoff reaction) on FRTL-5; format: cell-based; settings: mean ± SD, ≥ 3 independent experiments; 2 h exposure; SK reaction
T1 construct: the endogenously NIS-expressing rat FRTL-5 cell line; host or cells: FRTL-5 (CVCL_0265)
T1 sequence (Q63008 1-618): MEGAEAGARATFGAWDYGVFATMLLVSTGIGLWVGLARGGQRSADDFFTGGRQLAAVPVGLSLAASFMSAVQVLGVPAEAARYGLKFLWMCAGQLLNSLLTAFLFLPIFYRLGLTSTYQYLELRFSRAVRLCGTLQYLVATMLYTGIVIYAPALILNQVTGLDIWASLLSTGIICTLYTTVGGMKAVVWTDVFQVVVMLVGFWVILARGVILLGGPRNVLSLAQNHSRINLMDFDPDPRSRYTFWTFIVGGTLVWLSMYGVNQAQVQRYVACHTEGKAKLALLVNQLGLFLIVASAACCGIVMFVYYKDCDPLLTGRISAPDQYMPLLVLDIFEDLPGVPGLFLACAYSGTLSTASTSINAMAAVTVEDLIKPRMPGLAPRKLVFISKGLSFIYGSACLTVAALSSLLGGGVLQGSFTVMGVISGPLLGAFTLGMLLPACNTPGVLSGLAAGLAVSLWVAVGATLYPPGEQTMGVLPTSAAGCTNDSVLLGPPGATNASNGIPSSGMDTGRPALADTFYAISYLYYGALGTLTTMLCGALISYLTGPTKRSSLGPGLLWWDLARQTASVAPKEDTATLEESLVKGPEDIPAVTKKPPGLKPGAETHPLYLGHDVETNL

human NIS [1] = biological target: T2, human NIS (Homo sapiens, UniProt Q92911); test: NIS-inhibition assay (iodide uptake, Sandell–Kolthoff reaction) on HEK293T NIS 02; format: cell-based; set-up: host or cells: HEK293T (lentiviral transduction, puromycin selection, GFP sorting; lines NIS 02 and NIS C); settings: mean ± SD, ≥ 3 independent experiments, 2 h exposure, SK reaction; for IC50: read-out: NIS IC50 HEK293T NIS 02
T2 sequence (Q92911 1-643): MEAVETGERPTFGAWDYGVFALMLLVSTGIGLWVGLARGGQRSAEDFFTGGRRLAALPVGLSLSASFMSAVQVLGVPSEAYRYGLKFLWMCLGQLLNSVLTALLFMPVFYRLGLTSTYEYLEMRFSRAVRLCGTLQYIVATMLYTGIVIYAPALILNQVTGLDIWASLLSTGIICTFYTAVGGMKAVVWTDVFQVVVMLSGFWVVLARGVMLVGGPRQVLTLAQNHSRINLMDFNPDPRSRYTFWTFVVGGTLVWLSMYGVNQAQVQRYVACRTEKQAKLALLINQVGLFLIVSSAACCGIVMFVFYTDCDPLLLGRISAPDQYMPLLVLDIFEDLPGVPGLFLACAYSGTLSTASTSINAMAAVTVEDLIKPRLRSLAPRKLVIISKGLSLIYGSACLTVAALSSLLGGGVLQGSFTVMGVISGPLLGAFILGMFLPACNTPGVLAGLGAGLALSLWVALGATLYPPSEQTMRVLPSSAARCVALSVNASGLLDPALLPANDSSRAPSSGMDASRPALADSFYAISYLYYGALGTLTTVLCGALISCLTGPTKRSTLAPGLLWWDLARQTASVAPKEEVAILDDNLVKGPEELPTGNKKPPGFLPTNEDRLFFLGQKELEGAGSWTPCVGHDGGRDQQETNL

HEK293T NIS C cells = test: Neutral red uptake viability assay, HEK293T NIS C; settings: mean±SD, 2 h exposure
human NIS [2] = biological target: T2, human NIS; set-up: host or cells: HEK293T (lentiviral transduction, puromycin selection, GFP sorting; lines NIS 02 and NIS C); settings: hNIS-HEK293T-EPA, RAIU, cited from earlier work
FRTL-5 cells = test: Neutral red uptake viability assay, FRTL-5; settings: mean±SD, 2 h exposure
human NIS [3] = biological target: T2, human NIS; test: NIS-inhibition assay (iodide uptake, Sandell–Kolthoff reaction) on HEK293T NIS C; format: cell-based; set-up: host or cells: HEK293T (lentiviral transduction, puromycin selection, GFP sorting; lines NIS 02 and NIS C); settings: mean ± SD, ≥ 3 independent experiments; 2 h exposure; SK reaction
[4] = set-up: method as in PubChem https://pubchem.ncbi.nlm.nih.gov/; settings: ref PubChem https://pubchem.ncbi.nlm.nih.gov/; cited from earlier work
[5] = set-up: method as in PubChem https://pubchem.ncbi.nlm.nih.gov/; settings: ref PubChem https://pubchem.ncbi.nlm.nih.gov/; cited from earlier work; remark: listed apart in the source
human NIS [6] = biological target: T2, human NIS; test: Biotransformation (BTS, rat S9)-augmented NIS-inhibition assay, HEK293T NIS02; settings: for effect of fully active BTS (W/S9, W/cof) on NIS inhibition versus control setups: two-way ANOVA, p < 0.05; for IC20: three independent experiments
[7] = ref PubChem https://pubchem.ncbi.nlm.nih.gov/; cited from earlier work
[8] = read-out: NIS inhibition IC20 D S9, W/cof, 5 h preincubation with denatured S9 and cofactors
[9] = read-out: NIS inhibition IC20 W/O S9, W/cof, 5 h preincubation without S9 fraction, with all cofactors

| Structure (SMILES) | NIS IC50 FRTL-5 (NIS) | NIS IC50 HEK293T NIS 02 (human NIS [1]) | NR IC20 HEK293T NISC (HEK293T NIS C cells) | NR IC20 FRTL-5 (FRTL-5 cells) | NIS IC50 HEK293T NIS C (human NIS [3]) | Henry‘s law [4] | log Kow [5] | solubility in water [7] [µg/mL] | other results |
| --- | --- | --- | --- | --- | --- | --- | --- | --- | --- |
| CCCc1cc(=O)[nH]c(=S)[nH]1 [PTU, 6-Propylthiouracil, reference compound] | n.e and n.e. / n.e. | n.e and n.e. / n.e. | n.e. / n.e. | n.e. / n.e. | n.e and n.e. / n.e. | 1.1x10^-9 atm- m^3/mol |  |  | Data from literature NIS IC50 (human NIS [2]; ref Buckalew et al., 2020): n.e.; Data from literature NIS IC50 (human NIS [2]; ref Hallinger et al., 2017): n.e. |
| Cc1cc(NS(=O)(=O)c2ccc(N)cc2)no1 [SMX, Sulfamethoxazole, reference compound] | n.e and n.e. / n.e. | n.e and n.e. / n.e. |  |  | n.e and n.e. / n.e. |  |  |  |  |
| Oc1cccc(O)c1 [RSC, Resorcinol] |  |  | n.e./ n.e. | 4709.5 ±562 / n.e. | n.e and n.e./ n.e. | 9.9x10^-11 atm- m^3/mol | 0.8 |  | effect of fully active BTS (W/S9, W/cof) on NIS inhibition versus control setups (human NIS [6]): no significant differences were observed; IC50 (NIS): 4710 ± 562 µM; IC50 (human NIS [1]): 4060 ± 2050 µM; Data from literature NIS IC50 (human NIS [2]; ref Wang et al., 2019): n.e. |
| NC(Cc1cc(I)c(Oc2cc(I)c(O)c(I)c2)c(I)c1)C(=O)O [T4, 3,3′,5,5″-Tetraiodo-L-thyronine] | n.e and n.e. / n.e. | n.e and n.e. / n.e. | n.e. / n.e. | n.e. / n.e. | n.e and n.e. / n.e. |  | 0.16 | 0.162 (≈ 0.209 µM) |  |
| CCC(Cc1c(I)cc(I)c(N)c1I)C(=O)O (stereo not shown) [IOP, Iopanoic acid, reference compound] | n.e and n.e. / n.e. | n.e and n.e. / n.e. | n.e. / n.e. | n.e. / n.e. | n.e and n.e. / n.e. |  |  | 348.3 (≈ 610 µM) |  |
| NC(=O)N1c2ccccc2C=Cc2ccccc21 [CBZ, Carbamazepine, reference compound] | n.e and n.e./ n.e. | n.e and n.e. / n.e. | n.e./ n.e. |  | n.e and n.e./ n.e. | 1.1x10^-10 atm- m^3/mol |  | 18 (≈ 76.2 µM) | Data from literature NIS IC50 (human NIS [2]; ref US-EPA, 2024): n.e.; Data from literature NIS IC50 (human NIS [2]; ref Wang et al., 2019): n.e. |
| CC1(C)S[C@@H]2[C@H](NC(=O)[C@H](N)c3ccccc3)C(=O)N2[C@H]1C(=O)O [AMP, Ampicillin, reference compound] | n.e and n.e./ n.e. | n.e and n.e./ n.e. | n.e./ n.e. | n.e./ n.e. | n.e and n.e./ n.e. |  |  |  |  |
| N[C@@H](Cc1cc(I)c(Oc2ccc(O)c(I)c2)c(I)c1)C(=O)O [T3, 3,3′,5-Triiodo-L-thyronine] |  |  | n.e. / n.e. | n.e. / n.e. |  |  | 0.93 |  |  |
| S=C1NCCN1 [ETU, Ethylene thiourea] | n.e and n.e./ n.e. | n.e and n.e./ n.e. | n.e./ n.e. | n.e./ n.e. | n.e and n.e./ n.e. | 1.4x10^-11 atm- m^3/mol | -0.66 |  |  |
| COc1ccc(C(c2ccc(OC)cc2)C(Cl)(Cl)Cl)cc1 [MET, Methoxychlor, reference compound] |  |  | n.e./ n.e. | 218±4.3 / n.e. | n.e and n.e./ n.e. | 2.03x10^-7 atm- m^3/mol | 5.08 | 0.04 (≈ 0.116 µM) | IC20 (human NIS [6]; [8]): 20.7 ± 19.5 µM; IC20 (human NIS [6]; [9]): > 500 µM; effect of fully active BTS (W/S9, W/cof) on NIS inhibition versus control setups (human NIS [6]): no biotransformation-related effect changes were detected; IC50 (NIS): 218 ± 4.3 µM; IC50 (human NIS [1]): 11 ± 8.7 µM; IC20 (human NIS [2]; ref US-EPA, 2024, read-out: Data from literature NIS IC20): 12.6 µM; Data from literature NIS IC50 (human NIS [2]; ref Wang et al., 2018): n.e. |
| O=C(O)c1ccccc1O [SA, Salicylic acid] | n.e and n.e. / n.e. | n.e and n.e. / n.e. | n.e. / n.e. | n.e. / n.e. | n.e and n.e. / n.e. |  | 2.26 |  |  |
| CC1=C[C@H]2O[C@@H]3[C@H](O)C[C@](C)([C@@]2(CO)[C@H](O)C1=O)[C@]31CO1 [DON, Deoxynivalenol] |  |  |  |  |  | 2.0x10^-14 atm- m^3/mol | -0.71 | 55000 (≈ 186000 µM) |  |
| O=P(Oc1ccccc1)(Oc1ccccc1)Oc1ccccc1 [TPP, Triphenyl phosphate] |  |  | n.e. / n.e. | 92.6 ±24.1 / n.e. | n.e and n.e. / n.e. | 3.3x10^-6 atm- m^3/mol | 4.6 |  | IC20 (human NIS [6]; [8]): 9.97 ± 3.36 µM; IC20 (human NIS [6]; read-out: NIS inhibition IC20 SM, standard method without preincubation, run in parallel): 7.93 ± 4.47 µM; IC20 (human NIS [6]; [9]): 17.5 ± 7.2 µM; effect of fully active BTS (W/S9, W/cof) on NIS inhibition versus control setups (human NIS [6]): no biotransformation-related effect changes were detected; IC50 (NIS): 92.6 ± 24.1 µM; IC50 (human NIS [1]): 42.8 ± 18.9 µM; IC50 (human NIS [2]; read-out: Data from literature NIS IC50, ref US-EPA, 2024): 50 µM |
| O=C(c1ccc(O)cc1O)c1ccc(O)cc1O [BP2, 2,2′-4,4′-Tetrahydroxy Benzophenone] | n.e and n.e. / n.e. | n.e and n.e./ n.e. | n.e./ n.e. | n.e. / n.e. | n.e and n.e./ n.e. | 3.6x10^-6 atm- m^3/mol |  | 8821 (≈ 35800 µM) |  |
